Data on 1 compound can be found in article PMC11257323, “Thermostabilization of a fungal laccase by entrapment in enzymatically synthesized levan nanoparticles” (PLOS ONE, 2024).

The experiment has as its target T1, LevS△N70Tn38 (Leuconostoc mesenteroides, UniProt Q1L7R6).
T1 construct: truncated levansucrase LevS△N70Tn38 (name implies N-terminal 70-residue deletion); pET-22b, expressed in E. coli BL21, DEAE-purified
The experiment in a line: DNS reducing-sugar assay. The note with it: 292 mM sucrose; 50 mM acetate pH 6.0; 1 mM CaCl2; 30°C. Type of experiment: biochemical.

T1 sequence (Q1L7R6 entry or part of it): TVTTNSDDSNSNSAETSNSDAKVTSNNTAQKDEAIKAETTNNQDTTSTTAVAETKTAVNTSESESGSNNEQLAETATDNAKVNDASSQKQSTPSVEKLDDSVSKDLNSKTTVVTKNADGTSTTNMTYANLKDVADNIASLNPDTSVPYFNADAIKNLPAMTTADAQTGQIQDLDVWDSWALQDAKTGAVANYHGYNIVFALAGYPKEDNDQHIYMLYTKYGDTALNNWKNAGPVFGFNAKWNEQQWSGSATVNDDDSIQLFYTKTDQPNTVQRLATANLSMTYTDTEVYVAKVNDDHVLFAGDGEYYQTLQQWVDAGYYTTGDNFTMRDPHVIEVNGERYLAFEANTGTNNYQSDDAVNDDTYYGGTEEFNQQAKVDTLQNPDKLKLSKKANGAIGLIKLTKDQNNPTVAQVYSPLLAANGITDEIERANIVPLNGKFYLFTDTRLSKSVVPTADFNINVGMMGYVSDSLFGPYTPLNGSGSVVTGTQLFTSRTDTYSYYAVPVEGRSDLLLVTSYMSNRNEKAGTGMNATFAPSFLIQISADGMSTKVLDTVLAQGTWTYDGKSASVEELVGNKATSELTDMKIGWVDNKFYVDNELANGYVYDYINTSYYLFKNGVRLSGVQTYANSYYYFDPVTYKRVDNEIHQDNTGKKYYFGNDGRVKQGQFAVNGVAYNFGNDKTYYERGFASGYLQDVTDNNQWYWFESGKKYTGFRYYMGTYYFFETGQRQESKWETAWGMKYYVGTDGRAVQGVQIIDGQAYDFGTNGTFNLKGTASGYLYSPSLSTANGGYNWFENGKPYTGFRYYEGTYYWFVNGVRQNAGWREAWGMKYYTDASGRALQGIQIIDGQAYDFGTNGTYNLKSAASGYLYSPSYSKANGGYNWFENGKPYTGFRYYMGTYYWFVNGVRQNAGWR

As for `OC[C@H]1O[C@@](CO)(O[C@H]2O[C@H](CO)[C@@H](O)[C@H](O)[C@H]2O)[C@@H](O)[C@@H]1O` [sucrose], the DNS reducing-sugar assay result is recorded as “LevS△N70Tn38 activity was determined by quantification of released reducing sugars from sucrose”.
